The record followed here is patent US20240116921A1, “LACTAM (HETERO)[…] DERIVATIVES AS INHIBITORS OF ERBB2” (EnLiven Therapeutics, Inc., priority 2020, published 2024).

Assay [1] deals with T1, phosphorylated ERBB2 (pERBB2) (Homo sapiens, UniProt P04626).
T1 construct: endogenous in cells; host or cells: BT-474
Briefly: Detection of phosphorylated ERBB2 (pERBB2) by ELISA in BT-474 cells. The format is cell-based. Particulars: four hours incubation. An outline of the steps:
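BT-474 cells (2.0×10^4/well) treated 4 h at 37 °C, 5% CO2 with compounds in four-fold dilutions from 10 µM to 0.01 nM. Lysate pERBB2 measured by ELISA with TMB read at 450 nm; % relative activity scaled between no-cell wells and 0.1% DMSO-treated cells.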
A general note: ELISA stands for enzyme-linked immunosorbent assay.

The target of assay [2] is T2, phosphorylated EGFR (pEGFR) (Homo sapiens, UniProt P00533).
T2 construct: performed to measure phosphorylated EGFR levels using A431 cells (10% FBS); endogenous in cells; host or cells: A431
Briefly: Detection of phosphorylated EGFR (pEGFR) in EGF-stimulated A431 cells. Particulars: A431 cells (10% FBS), 4 hours incubation, EGF 30 ng/mL 10 minutes, AlphaLISA. The format is cell-based. An outline of the steps: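 A431 cells in 10% FBS were preincubated with compound for 4 h at 37 °C, then stimulated with EGF (30 ng/mL final) for 10 min. pEGFR in lysates was read by AlphaLISA. % inhibition was calculated against DMSO and staurosporine-treated controls, and IC50 came from a four-parameter curve fit.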
On the technique in general: In Alpha technology, singlet oxygen from a donor bead excites a nearby acceptor bead.

Assay [3] has as its target Ba/F3 ERBB2 A775_G776insYVMA (Homo sapiens, UniProt P04626, DUP772-775, cells depend on it). Description: Cell viability assay, Ba/F3 ERBB2 A775_G776insYVMA. Format: cell-based, mouse. The settings on record: Ba/F3 ERBB2 YVMA cells, cell viability, 72 hours, CellTiter Glo; Table B5; read-out: Ba/F3 ERBB2 YVMA, IC50. An outline of the steps:
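IL-3-independent Ba/F3 lines stably expressing the human ERBB2 insertion mutants were seeded at 3000 cells/well and exposed to compounds for 72 h at 37 °C, 5% CO2. Viability was read as ATP by CellTiter-Glo luminescence. Curves were fitted by sigmoidal nonlinear regression.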
A general note: In ATP-based viability assays light output follows the ATP content of the culture.

Usually IC50 stands for the midpoint of a concentration-inhibition curve. A low value points to greater potency.

Structures can show the parent of a compound that is named as a salt.

T2 sequence (P00533 25-1210): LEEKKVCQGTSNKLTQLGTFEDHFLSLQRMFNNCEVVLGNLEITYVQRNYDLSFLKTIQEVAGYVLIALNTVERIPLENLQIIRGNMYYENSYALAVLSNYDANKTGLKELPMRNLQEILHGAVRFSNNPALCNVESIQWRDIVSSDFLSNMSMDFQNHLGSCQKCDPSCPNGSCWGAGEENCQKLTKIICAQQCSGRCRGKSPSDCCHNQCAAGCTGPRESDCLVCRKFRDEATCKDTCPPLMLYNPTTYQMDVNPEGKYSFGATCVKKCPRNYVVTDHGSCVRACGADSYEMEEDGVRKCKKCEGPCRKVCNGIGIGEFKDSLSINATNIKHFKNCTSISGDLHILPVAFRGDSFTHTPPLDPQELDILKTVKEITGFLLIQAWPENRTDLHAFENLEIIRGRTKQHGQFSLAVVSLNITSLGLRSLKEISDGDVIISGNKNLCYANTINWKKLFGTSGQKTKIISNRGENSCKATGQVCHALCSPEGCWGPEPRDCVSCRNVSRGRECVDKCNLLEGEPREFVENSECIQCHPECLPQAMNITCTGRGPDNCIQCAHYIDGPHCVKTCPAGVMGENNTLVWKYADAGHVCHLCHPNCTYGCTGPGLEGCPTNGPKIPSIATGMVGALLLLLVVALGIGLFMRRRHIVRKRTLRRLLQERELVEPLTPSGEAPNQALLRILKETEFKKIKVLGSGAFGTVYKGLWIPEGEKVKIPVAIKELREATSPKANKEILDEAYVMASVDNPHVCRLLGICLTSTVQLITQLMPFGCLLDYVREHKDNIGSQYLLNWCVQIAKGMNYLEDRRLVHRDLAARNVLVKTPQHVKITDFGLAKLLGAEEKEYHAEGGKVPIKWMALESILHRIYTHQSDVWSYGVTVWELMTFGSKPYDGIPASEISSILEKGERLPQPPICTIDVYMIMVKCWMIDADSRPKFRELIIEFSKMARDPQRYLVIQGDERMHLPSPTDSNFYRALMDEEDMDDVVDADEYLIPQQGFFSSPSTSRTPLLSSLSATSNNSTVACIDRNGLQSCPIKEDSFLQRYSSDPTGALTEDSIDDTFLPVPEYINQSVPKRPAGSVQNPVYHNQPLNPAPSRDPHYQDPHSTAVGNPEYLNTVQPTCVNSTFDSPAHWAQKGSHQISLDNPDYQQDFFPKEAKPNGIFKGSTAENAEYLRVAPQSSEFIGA
T1 sequence (P04626 23-1255): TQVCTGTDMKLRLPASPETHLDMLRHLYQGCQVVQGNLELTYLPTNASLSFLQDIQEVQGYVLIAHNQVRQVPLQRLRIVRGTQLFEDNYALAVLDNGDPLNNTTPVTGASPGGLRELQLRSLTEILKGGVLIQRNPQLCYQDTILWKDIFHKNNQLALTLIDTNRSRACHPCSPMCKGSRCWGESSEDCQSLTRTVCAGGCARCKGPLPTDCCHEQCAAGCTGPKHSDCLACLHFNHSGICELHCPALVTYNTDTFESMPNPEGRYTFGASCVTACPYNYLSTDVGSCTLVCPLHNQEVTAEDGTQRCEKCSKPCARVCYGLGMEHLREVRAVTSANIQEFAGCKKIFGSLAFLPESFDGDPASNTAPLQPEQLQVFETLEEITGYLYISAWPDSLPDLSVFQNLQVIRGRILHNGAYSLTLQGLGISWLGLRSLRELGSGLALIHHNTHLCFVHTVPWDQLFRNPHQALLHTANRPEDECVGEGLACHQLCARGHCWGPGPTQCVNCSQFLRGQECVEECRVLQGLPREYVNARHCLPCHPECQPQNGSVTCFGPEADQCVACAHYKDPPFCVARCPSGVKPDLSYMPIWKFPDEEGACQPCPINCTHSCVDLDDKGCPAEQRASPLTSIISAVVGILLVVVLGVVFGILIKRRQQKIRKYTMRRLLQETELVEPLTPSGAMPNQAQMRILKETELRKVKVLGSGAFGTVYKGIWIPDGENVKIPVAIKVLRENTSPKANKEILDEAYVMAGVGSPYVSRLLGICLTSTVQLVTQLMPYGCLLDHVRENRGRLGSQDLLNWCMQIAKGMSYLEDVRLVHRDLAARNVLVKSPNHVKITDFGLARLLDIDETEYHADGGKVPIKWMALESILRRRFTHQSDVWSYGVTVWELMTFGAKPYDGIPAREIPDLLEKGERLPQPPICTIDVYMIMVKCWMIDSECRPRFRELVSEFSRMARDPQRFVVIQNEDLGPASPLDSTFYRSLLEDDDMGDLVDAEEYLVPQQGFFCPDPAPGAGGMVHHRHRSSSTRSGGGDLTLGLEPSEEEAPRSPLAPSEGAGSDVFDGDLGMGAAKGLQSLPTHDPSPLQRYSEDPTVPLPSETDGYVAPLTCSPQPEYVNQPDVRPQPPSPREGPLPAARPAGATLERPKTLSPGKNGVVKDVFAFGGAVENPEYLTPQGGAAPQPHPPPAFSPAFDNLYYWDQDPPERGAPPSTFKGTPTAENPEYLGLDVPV
Ba/F3 ERBB2 A775_G776insYVMA, sequence (P04626 with tags, fused parts or gaps DUP772-775): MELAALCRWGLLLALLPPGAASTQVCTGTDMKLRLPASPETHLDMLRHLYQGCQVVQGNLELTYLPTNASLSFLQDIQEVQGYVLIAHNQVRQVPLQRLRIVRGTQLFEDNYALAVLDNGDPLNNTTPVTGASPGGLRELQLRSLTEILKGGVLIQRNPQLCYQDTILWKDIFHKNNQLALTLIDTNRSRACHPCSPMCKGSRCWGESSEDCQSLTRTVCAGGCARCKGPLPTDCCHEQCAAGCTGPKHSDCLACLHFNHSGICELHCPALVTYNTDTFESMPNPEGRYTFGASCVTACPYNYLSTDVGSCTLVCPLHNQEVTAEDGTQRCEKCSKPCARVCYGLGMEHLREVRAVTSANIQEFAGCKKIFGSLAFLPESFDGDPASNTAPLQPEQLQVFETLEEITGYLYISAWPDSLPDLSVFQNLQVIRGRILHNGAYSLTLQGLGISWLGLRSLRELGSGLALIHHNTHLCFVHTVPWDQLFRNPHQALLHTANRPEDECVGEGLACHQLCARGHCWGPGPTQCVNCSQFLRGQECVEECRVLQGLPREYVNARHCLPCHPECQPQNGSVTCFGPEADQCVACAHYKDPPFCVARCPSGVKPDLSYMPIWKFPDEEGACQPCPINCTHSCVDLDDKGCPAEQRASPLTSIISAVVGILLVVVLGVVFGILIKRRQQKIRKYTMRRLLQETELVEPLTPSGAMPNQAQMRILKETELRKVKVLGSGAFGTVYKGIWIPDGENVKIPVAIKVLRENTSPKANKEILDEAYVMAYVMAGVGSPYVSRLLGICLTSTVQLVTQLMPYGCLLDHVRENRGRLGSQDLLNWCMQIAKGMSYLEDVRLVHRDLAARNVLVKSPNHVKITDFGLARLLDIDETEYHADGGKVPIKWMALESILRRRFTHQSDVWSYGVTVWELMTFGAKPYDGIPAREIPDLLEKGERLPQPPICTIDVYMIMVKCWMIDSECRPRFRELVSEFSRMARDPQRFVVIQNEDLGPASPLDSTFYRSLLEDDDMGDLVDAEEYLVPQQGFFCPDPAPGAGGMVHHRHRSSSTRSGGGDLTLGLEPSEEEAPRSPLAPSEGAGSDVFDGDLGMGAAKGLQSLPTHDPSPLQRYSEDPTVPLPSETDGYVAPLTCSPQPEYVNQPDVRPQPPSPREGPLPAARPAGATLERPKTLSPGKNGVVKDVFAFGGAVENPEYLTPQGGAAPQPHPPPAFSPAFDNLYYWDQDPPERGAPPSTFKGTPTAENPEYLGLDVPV

In the case of `Cc1cc(Nc2ncnc3ccc(N4CC(C)/C(=C\CN(C)C)C4=O)nc23)ccc1Oc1ccc2c(c1)ncn2C` (single isomer, unassigned; enantiomer 2) [Example S58, Enantiomer # 2, (3E)-3-[2-(dimethylamino)ethylidene]-4-methyl-1-[4-({3-methyl-4-[(1-methyl-1,3-benzodiazol-5-yl)oxy]phenyl}amino)pyrido[3,2-d]pyrimidin-6-yl]pyrrolidin-2-one hydrochloride Enantiomer 2], the IC50 is 44.2 nM in assay [1] and more than 10000 nM in assay [2]. In assay [3], the GI50 was 13.3 nM.

Turning to `C=C1CCN(c2cc3c(Nc4ccc(Oc5ccn6ncnc6c5)c(Cl)c4)ncnc3cc2OCCN(C)C)C1=O` [Compound 25, 1-{4-[(3-chloro-4-{[1,2,4]triazolo[1,5-a]pyridin-7-yloxy}phenyl)amino]-7-[2-(dimethylamino)ethoxy]quinazolin-6-yl}-3-methylidenepyrrolidin-2-one], the IC50 is 1190 nM in assay [1] and more than 10000 nM in assay [2]. Further, the GI50 in assay [3] is more than 500 nM.

Consider `Cc1cc(Nc2ncnc3ccc(N4CC/C(=C\CCN(C)C)C4=O)cc23)ccc1Oc1ccn2ncnc2c1` [Compound 26, (3E)-3-[3-(dimethylamino)propylidene]-1-{4-[(3-methyl-4-{[1,2,4]triazolo[1,5-a]pyridin-7-yloxy}phenyl)amino]quinazolin-6-yl}pyrrolidin-2-one], for which the IC50 in assay [1] stood at 11.7 nM; in assay [2], 1460 nM. Moreover, in assay [3], the GI50 stood at 8.61 nM.

As for `C=C1CCN(c2ccc3ncnc(Nc4ccc(Oc5ccc6c(c5)ncn6C)c(C)c4)c3c2)C1=O` [Compound 27, 1-[4-({3-methyl-4-[(1-methyl-1,3-benzodiazol-5-yl)oxy]phenyl}amino)quinazolin-6-yl]-3-methylidenepyrrolidin-2-one], the concentration for half-maximal inhibition (IC50) in assay [1] was determined as 17.1 nM; in assay [2], 604 nM. Besides, in assay [3], the GI50 was 11.3 nM.

With `C=C1CCN(c2cc3c(Nc4ccc(Oc5ccn6ncnc6c5)c(C)c4)ncnc3cn2)C1=O` [Compound 28, 1-(4-((4-([1,2,4]triazolo[1,5-a]pyridin-7-yloxy)-3-methylphenyl)amino)pyrido[3,4-d]pyrimidin-6-yl)-3-methylenepyrrolidin-2-one], the half-inhibitory concentration (IC50) in assay [1] came to 7.77 nM; in assay [2], 355 nM. In addition, the GI50 in assay [3] is 5.32 nM.

As to `C=C1C(=O)N(c2ccc3ncnc(Nc4ccc(Oc5ccn6ncnc6c5)c(C)c4)c3c2)CC1CO` (stereo not drawn) [Compound 29, 4-(hydroxymethyl)-1-{4-[(3-methyl-4-{[1,2,4]triazolo[1,5-a]pyridin-7-yloxy}phenyl)amino]quinazolin-6-yl}-3-methylidenepyrrolidin-2-one], the IC50 in assay [1] amounted to 5.86 nM; in assay [2], 405 nM. Also, in assay [3], the GI50 amounted to 31.5 nM.

As for `C=C1C(=O)N(c2ccc3ncnc(Nc4ccc(Oc5ccn6ncnc6c5)c(C)c4)c3c2)CC1CN(C)C` (stereo not drawn) [Compound 30, 4-[(dimethylamino)methyl]-1-{4-[(3-methyl-4-{[1,2,4]triazolo [1,5-a]pyridin-7-yloxy}phenyl)amino]quinazolin-6-yl}-3-methylidenepyrrolidin-2-one; formic acid], the IC50 in assay [1] was found to be 12.3 nM; in assay [2], 68.4 nM. Besides, in assay [3], the GI50 stood at 17.4 nM.

Take `C=C1C(=O)N(c2cc3c(Nc4ccc(Oc5ccn6ncnc6c5)c(C)c4)ncnc3cn2)C[C@@H]1C` [Compound 31]: the results for the IC50 in assay [1] and in assay [2] were 15.9 nM and 117 nM, respectively. In assay [3], the GI50 turned out to be 3.78 nM.

`C=C1C(=O)N(c2cc3c(Nc4ccc(Oc5ccn6ncnc6c5)c(C)c4)ncnc3cn2)C[C@H]1C` [Compound 32, (4S)-4-methyl-1-{4-[(3-methyl-4-{[1,2,4]triazolo[1,5-a]pyridin-7-yloxy}phenyl)amino]pyrido[3,4-d]pyrimidin-6-yl}-3-methylidenepyrrolidin-2-one]: the IC50 was 72.1 nM in assay [1] and 8180 nM in assay [2]. Further, the GI50 in assay [3] is 134 nM.

Regarding `Cc1cc(Nc2ncnc3ccc(N4CC/C(=C\CN(C)C)C4=O)cc23)ccc1Oc1ccc2c(c1)ncn2C` [Compound 33, (E)-3-(2-(dimethylamino)ethylidene)-1-(4-((3-methyl-4-((1-methyl-1H-benzo[d]imidazol-5-yl)oxy)phenyl)amino)quinazolin-6-yl)pyrrolidin-2-one], the IC50 in assay [1] stood at 18.5 nM; in assay [2], 1140 nM. The GI50 in assay [3] was found to be 15.8 nM.

For the compound `C=C1C(=O)N(c2ccc3ncnc(Nc4ccc(Cc5ccn6ncnc6c5)c(C)c4)c3c2)C[C@H]1C` [Compound 36, (S)-1-(4-((4-([1,2,4]triazolo[1,5-a]pyridin-7-ylmethyl)-3-methylphenyl)amino)quinazolin-6-yl)-4-methyl-3-methylenepyrrolidin-2-one], the 50% inhibitory concentration (IC50) in assay [1] was found to be 40.9 nM; in assay [2], 2330 nM. For the same compound, in assay [3], the GI50 came out at 80.5 nM.

As for `C=C1C(=O)N(c2ccc3ncnc(Nc4ccc(Oc5ccc6c(c5)ncn6C)c(C)c4)c3c2)C[C@H]1C` [Compound 37, (S)-4-methyl-1-(4-((3-methyl-4-((1-methyl-1H-benzo [d]imidazol-5-yl)oxy)phenyl)amino)quinazolin-6-yl)-3-methylenepyrrolidin-2-one], the IC50 is 26.9 nM in assay [1] and 1020 nM in assay [2]. The GI50 in assay [3] was 17.4 nM.

As for `Cc1cc(Nc2ncnc3ccc(N4CC/C(=C\CN(C)C)C4=O)nc23)ccc1Oc1ccc2c(c1)ncn2C` [Compound 38, (3E)-3-[2-(dimethylamino)ethylidene]-1-[4-({3-methyl-4-[(1-methyl-1,3-benzodiazol-5-yl)oxy]phenyl}amino)pyrido[3,2-d]pyrimidin-6-yl]pyrrolidin-2-one], the IC50 was 29.3 nM in assay [1] and 407 nM in assay [2]. In addition, the GI50 in assay [3] was determined as 2 nM.

In the case of `C=C1CCN(c2cc3c(Nc4ccc(Oc5ccc6c(c5)ncn6C)c(C)c4)ncnc3cn2)C1=O` [Compound 39, 1-(4-((3-methyl-4-((1-methyl-1H-benzo[d]imidazol-5-yl)oxy)phenyl)amino)pyrido[3,4-d]pyrimidin-6-yl)-3-methylenepyrrolidin-2-one], the IC50 is 36.2 nM in assay [1] and 497 nM in assay [2]. Further, in assay [3], the GI50 amounted to 14.6 nM.

Regarding `Cc1cc(Nc2ncnc3ccc(N4CC/C(=C\CCN5CCN(C)CC5)C4=O)cc23)ccc1Oc1ccn2ncnc2c1` [Compound 40, (3E)-1-{4-[(3-methyl-4-{[1,2,4]triazolo[1,5-a]pyridin-7-yloxy}phenyl)amino]quinazolin-6-yl}-3-[3-(4-methylpiperazin-1-yl)propylidene]pyrrolidin-2-one], the concentration for half-maximal inhibition (IC50) in assay [1] is 30.7 nM; in assay [2] it was more than 10000 nM. In addition, in assay [3], the GI50 is more than 500 nM.

For the compound `C=C1C(=O)N(c2ccc3ncnc(Nc4ccc(Oc5ccc6c(c5)ncn6C)c(C)c4)c3c2)C[C@@H]1C` [Compound 41, (R)-4-methyl-1-(4-((3-methyl-4-((1-methyl-1H-benzo[d]imidazol-5-yl)oxy)phenyl)amino)quinazolin-6-yl)-3-methylenepyrrolidin-2-one], the IC50 in assay [1] came to 29 nM; in assay [2], 4490 nM. In addition, the GI50 in assay [3] was found to be 29 nM.

`Cc1cc(Nc2ncnc3ccc(N4CC/C(=C\CCN(C)C)C4=O)cc23)ccc1Oc1ccc2c(c1)ncn2C` [Compound 44, (3E)-3-[3-(dimethylamino)propylidene]-1-[4-({3-methyl-4-[(1-methyl-1,3-benzodiazol-5-yl)oxy]phenyl}amino)quinazolin-6-yl]pyrrolidin-2-one]: the IC50 in assay [1] is 26.2 nM; in assay [2] it was 1940 nM. The GI50 in assay [3] worked out at 14.5 nM.

Turning to `Cc1cc(Nc2ncnc3cnc(N4CC/C(=C\CN(C)C)C4=O)cc23)ccc1Oc1ccc2c(c1)ncn2C` [Compound 45, (E)-3-(2-(dimethylamino)ethylidene)-1-(4-((3-methyl-4-((1-methyl-1H-benzo[d]imidazol-5-yl)oxy)phenyl)amino)pyrido[3,4-d]pyrimidin-6-yl)pyrrolidin-2-one], the IC50 in assay [1] was found to be 22.6 nM; in assay [2], 670 nM. Moreover, in assay [3], the GI50 came out at 1.79 nM.

`C=C1CCN(c2ccc3ncnc(Nc4ccc(Oc5ccc6nccnc6c5)c(C)c4)c3c2)C1=O` [Compound 46, 1-(4-((3-methyl-4-(quinoxalin-6-yloxy)phenyl)amino)quinazolin-6-yl)-3-methylenepyrrolidin-2-one]: the IC50 came out at 65.1 nM in assay [1] and 759 nM in assay [2]. Moreover, in assay [3], the GI50 came to 53.9 nM.

As to `Cc1cc(Nc2ncnc3ccc(N4CC/C(=C\CN(C)C)C4=O)nc23)ccc1Oc1ccn2ncnc2c1` [Compound 47, (E)-1-(4-((4-([1,2,4]triazolo[1,5-a]pyridin-7-yloxy)-3-methylphenyl)amino)pyrido[3,2-d]pyrimidin-6-yl)-3-(2-(dimethylamino)ethylidene)pyrrolidin-2-one], the IC50 came to 28.9 nM in assay [1] and 2220 nM in assay [2]. Moreover, in assay [3], the GI50 came out at 4.08 nM.
